Experimental data from PubChem BioAssay (NCI).
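Method: 48-hour compound exposure of cells in 96-well plates, five concentrations, linear interpolation of endpoints. GI50 is the concentration that inhibits growth by half. TGI: concentration producing complete growth inhibition.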

How the values were obtained:
Experiment in all cases: inhibition of tumour cell growth, NCI panel, 48 h
UACC-257 melanoma = tested on: UACC-257 melanoma
A549 NSCLC = tested on: A549 NSCLC
SR leukemia = tested on: SR leukemia
UO-31 renal = tested on: UO-31 renal
NCI-H23 lung = tested on: NCI-H23 lung
KM20L2 colon = tested on: KM20L2 colon
RPMI-8226 leukemia = tested on: RPMI-8226 leukemia
EKVX NSCLC = tested on: EKVX NSCLC
DMS 273 small cell lung = tested on: DMS 273 small cell lung
SNB-78 CNS = tested on: SNB-78 CNS
M19-MEL melanoma = tested on: M19-MEL melanoma
DMS 114 small cell lung = tested on: DMS 114 small cell lung
HCC-2998 colon = tested on: HCC-2998 colon
NCI/ADR-RES ovarian = tested on: NCI/ADR-RES ovarian
MCF7 breast = tested on: MCF7 breast
MDA-MB-231 breast = tested on: MDA-MB-231 breast
DU-145 prostate = tested on: DU-145 prostate

Structure (SMILES) | TGI (UACC-257 melanoma) [µM] | TGI (A549 NSCLC) [µM] | TGI (SR leukemia) [µM] | TGI (UO-31 renal) [µM] | TGI (NCI-H23 lung) [µM] | TGI (KM20L2 colon) [µM] | TGI (RPMI-8226 leukemia) [µM] | TGI (EKVX NSCLC) [µM] | TGI (DMS 273 small cell lung) [µM] | TGI (SNB-78 CNS) [µM] | TGI (M19-MEL melanoma) [µM] | GI50 (A549 NSCLC) [µM] | GI50 (UO-31 renal) [µM] | GI50 (RPMI-8226 leukemia) [µM] | TGI (DMS 114 small cell lung) [µM] | TGI (HCC-2998 colon) [µM] | TGI (NCI/ADR-RES ovarian) [µM] | TGI (MCF7 breast) [µM] | TGI (MDA-MB-231 breast) [µM] | TGI (DU-145 prostate) [µM]
CCCCC1(C)C=C/C(=C2/C(=O)O/C(=C\C(=O)O)C2=O)O1 (stereo not given) | > 100 | > 100 | > 100 | > 100 | > 100 | > 100 | > 100 | > 100 | > 100 | > 100 | > 100 | – | – | – | – | – | – | – | – | –
C=C1CCC2[C@@H](CCC3[C@]2(C)CCC[C@]3(C)C(=O)OC)C1CC=O (stereo not given in full) | 31 | 42.5 | – | 28.9 | 35.4 | 35.7 | 33.4 | 36 | 40.7 | 34.1 | 33.8 | 21 | 14.8 | 8.28 | 34.7 | – | – | – | – | –
COC(=O)[C@@]1(C(C)CC(=O)O)CCCCC1=O (stereo not given in full) | > 100 | > 100 | > 100 | > 100 | > 100 | > 100 | 82 | > 100 | 39.7 | > 100 | > 100 | – | – | – | > 100 | > 100 | – | – | – | –
C/C=C/C#CC#C/C=C/C=C/C(O)CCO (stereo not given) | > 23.1 | > 23.1 | > 23.1 | > 23.1 | > 23.1 | > 23.1 | > 23.1 | > 23.1 | > 23.1 | > 23.1 | > 23.1 | – | – | – | > 23.1 | > 23.1 | – | – | – | –
O=C(c1nc2ccccc2[nH]c1=O)C(O)c1ccccc1 (stereo not given) | > 100 | > 100 | > 100 | > 100 | > 100 | > 100 | > 100 | > 100 | > 100 | > 100 | > 100 | – | – | – | > 100 | > 100 | – | – | – | –
COc1ccc(CCC2c3cc(OC)c(OC)cc3CCN2C)cc1OC (stereo not given) | > 100 | > 100 | > 100 | > 100 | > 100 | > 100 | > 100 | > 100 | – | > 100 | > 100 | – | – | – | > 100 | > 100 | – | – | – | –
CCN(CC)c1ccc2c(c1)Oc1ccc(N(CC)CC)cc1C21Oc2ccccc2-c2c1c1ccccc1n2CC (stereo not given) | > 100 | > 100 | > 100 | 63.2 | 8.01 | > 100 | > 100 | > 100 | > 100 | > 100 | – | – | – | – | 3.61 | > 100 | – | – | – | –
CC1(C)CC(=O)C(/C(=N/NC(=S)NN)C(=O)Nc2nc3ccc([N+](=O)[O-])cc3s2)C(=O)C1 | > 100 | > 100 | > 100 | > 100 | > 100 | > 100 | – | > 100 | – | > 100 | > 100 | – | – | – | > 100 | > 100 | – | – | – | –
COc1ccc(/C=C2\CCC(C)(CN(C)C)C2=O)cc1OC (stereo not given) | > 100 | > 100 | – | > 100 | > 100 | > 100 | > 100 | > 100 | > 100 | > 100 | > 100 | – | – | – | > 100 | > 100 | – | – | – | –
Cc1cc(N(CCC#N)CCC#N)ccc1/C(N=Nc1cccc(Cl)c1)=N/NC(=O)c1cc(Cl)ccc1O | 31.2 | 75.7 | > 100 | 55.6 | 31.1 | – | 63.5 | 39.6 | – | – | – | – | – | – | – | 26.2 | 54.6 | > 100 | 49 | 42.6
CCOC(=O)/C(C#N)=C(O)/C(=C\c1ccc(Br)cc1)NC(=O)c1ccccc1 | > 100 | > 100 | – | > 100 | > 100 | > 100 | 59.6 | > 100 | > 100 | > 100 | > 100 | – | – | – | > 100 | > 100 | – | – | – | –
CCC(=O)C(CCN1CCC2(CCCc3ccccc32)CC1)(c1ccccc1)c1ccccc1 | 5.51 | 15.6 | 5.9 | 8.66 | 5.45 | – | 2.35 | 17.6 | – | – | – | – | – | – | – | 7.44 | 14.3 | 10.9 | 5.78 | 11.6
CCC1OC2C(CC=C(C)C)=C3OC(C)(O)C(C)(CC)C(OC(C)=O)C3=C3OC(=O)C=C1C32 (stereo not given) | 53.7 | > 100 | > 100 | 62.2 | 75.5 | – | > 100 | > 100 | – | – | – | – | – | – | – | 50.6 | 83.2 | > 100 | 36.7 | > 100
CCOC(=O)NNC(=O)NCc1cccc(CNC(=O)NNC(=O)OCC)c1 | > 100 | > 100 | > 100 | > 100 | > 100 | – | > 100 | > 100 | – | – | – | – | – | – | – | > 100 | > 100 | > 100 | > 100 | > 100
O=C(CCC1C(=O)NC(=S)NC1=O)c1ccc2ccccc2c1 | > 100 | > 100 | > 100 | > 100 | > 100 | > 100 | – | > 100 | > 100 | > 100 | > 100 | – | – | – | > 100 | > 100 | – | – | – | –
CN(C)C(=NCc1ccccc1)NC#N | > 100 | > 100 | – | > 100 | > 100 | > 100 | – | > 100 | > 100 | > 100 | > 100 | – | – | – | – | > 100 | – | – | – | –
O=C1Nc2ccccc2N=CC1NC(=O)C(c1ccccc1)c1ccccc1 (stereo not given) | > 100 | > 100 | – | > 100 | > 100 | > 100 | > 100 | > 100 | > 100 | > 100 | > 100 | – | – | – | > 100 | > 100 | – | – | – | –
